Results reported in patent US5578315A, “Mucosal adhesive device for long-acting delivery of pharmaceutical combinations in oral cavity” (Rutgers, The State University of New Jersey, priority 1993, dated 1996).
≈ marks a conversion by molar mass, not a printed value.

Experiment: Solubility in isotonic phosphate buffer containing PEG 400
Format: physicochemical
Description: For use of clotrimazole, solubility in phosphate buffer is an issue and therefore, 20% and 40% PEG 400 are added to the phosphate buffer and the solubility is determined.

`Clc1ccccc1C(c1ccccc1)(c1ccccc1)n1ccnc1` [clotrimazole, Clotrimazole] gave a solubility (organic solvent or mixture, isotonic phosphate buffer (pH 6.8) containing 20% PEG 400) of about 0.06 mg/mL (≈ 174 µM) and a solubility (pH 6.8, organic solvent or mixture, phosphate buffer containing 40% PEG 400) of about 0.43 mg/mL (≈ 1250 µM).
